Measurements: patent US20170042196A1, “USE OF UMAMI COMPOUNDS TO ENHANCE SALTINESS” (Senomyx, Inc., priority 2015, published 2017)

Legend:
Type in all cases: in vivo
[1] = test system: trained panelists (saltiness perception); experiment: 2-Alternative Forced Choice human taste test, saltiness in chicken broth (low sodium broth + 100 mM NaCl); conditions: for Sample selected as saltier by panelists (Total): 0.1% ethanol, 55° C.; for saltiness of test sample versus control sample: p<0.1
Protocol: Samples of chicken broth were prepared and compared using human taste tests. Control samples contained chicken broth alone. Test samples contained the same chicken broth to which a specific umami compound was added at a specified concentration. To prepare the test sample, a concentrated stock solution of an umami compound was prepared in ethanol. The stock solution was added to a commercially available no-MSG added, low sodium chicken broth (Pacific Organic Free Range Chicken Broth Low Sodium), to which 100 mM NaCl was also added, resulting in a final concentration of the umami compound in the test sample with 0.1% ethanol. To create the control sample, 100 mM NaCl was added to the low sodium chicken broth, and it was balanced with 0.1% ethanol. All samples were served at 55° C. A 2-Alternative Forced Choice test was used, where panelists received two three-digit blind-coded samples, one control and one test sample, in randomized, counter-balanced order. Panelists tasted samples, rinsing with water between samples, and indicated which of the two samples was […]. The results were analyzed using a binomial distribution with alpha=0.1.

[2] = test system: trained panelists (saltiness perception); experiment: 2-Alternative Forced Choice human taste test, saltiness in low sodium chicken broth; conditions: for Sample selected as saltier by panelists (Total): 55° C.; for saltiness of test sample versus control sample: p<0.1
Protocol: Samples of low sodium chicken broth were prepared and compared using human taste tests. Control samples contained low sodium chicken broth alone. Test samples contained the same low sodium chicken broth to which a specific umami compound was added at a specified concentration. To prepare the test sample, a concentrated stock solution of an umami compound was prepared in ethanol. […] To create the control sample, the chicken broth was balanced with 0.1% ethanol. All samples were served at 55° C. Trained panelists were used to complete the test with three replicates (subject number reported in each table). A 2-Alternative Forced Choice test was used, where panelists received two three-digit blind-coded samples, one control and one test sample, in randomized, counter-balanced order. Panelists tasted samples, rinsing with water between samples, and indicated which of the two samples was […]. The results were analyzed using a binomial distribution with alpha=0.1.

[3] = test system: trained panelists (saltiness perception); experiment: Difference from Reference scaling human taste test, saltiness in low sodium chicken broth
Protocol: Samples of low sodium chicken broth were prepared and compared using human taste tests. The reference samples contained low sodium chicken broth alone. The test samples contained the same low sodium chicken broth to which a specific umami compound was added. To prepare the test samples, a concentrated stock solution of an umami compound was prepared in ethanol. The stock solution was added to a commercially available no-MSG added, low sodium chicken broth (Pacific Organic Free Range Chicken Broth Low Sodium), resulting in a final concentration of the umami compound in the test sample with 0.1% ethanol. To create the reference sample, the low sodium chicken broth was balanced with 0.1% ethanol. All samples were served at 55° C. Trained panelists were used to complete the test with two replicates (subject number reported in each table). A Difference from Reference scaling test was used. Panelists received pairs of samples, consisting of the reference sample and a three-digit blind coded sample, which was either the reference sample again (i.e., a negative control), or the test sample containing the compound of interest. Panelists first tasted the reference sample, then rinsed with water and tasted the blind-coded sample. Panelists were asked to score the test sample for differences in saltiness as compared to the reference sample. […] The test also included measurement of other attributes rated on separate scales (e.g., umami intensity, bitterness, and chicken flavor) to ensure responses for saltiness focused solely on that attribute. The order in which panelists received sample pairs containing either the reference or the test sample as the three-digit blind coded sample was randomized and counterbalanced. The results were analyzed using a two-tailed Student's t-test, with alpha=0.1.

CCCC(CCC)NC(=O)c1ccc2c(c1)OCO2 [Formula (1a)]
Sample selected as saltier by panelists (Total) ([1]; 2 ppm in chicken broth (100 mM NaCl added), n = 48 (16 panelists × 3 replicates)): 31 | saltiness of test sample versus control sample ([1]; 2 ppm in chicken broth (100 mM NaCl added)): significantly saltier | Sample selected as saltier by panelists (Total) ([2]; 2 ppm in low sodium chicken broth, 0.05% ethanol, n = 48 (16 panelists × 3 replicates)): 35 | saltiness of test sample versus control sample ([2]; 2 ppm in low sodium chicken broth): significantly saltier

COc1cccc(-c2n[nH]c(SCc3ccccn3)n2)c1OC [Formula (1b)]
Average Saltiness Score of Test Sample as compared to Reference Sample ([3]; 5 ppm in low sodium chicken broth, 11-point scale −5 to +5, n = 24 (12 panelists × 2 replicates)): 0.7 | saltiness of test sample versus reference sample ([3]; 5 ppm in low sodium chicken broth, p<0.1): significantly saltier | Sample selected as saltier by panelists (Total) ([2]; 5 ppm in low sodium chicken broth, 0.1% ethanol, n = 48 (16 panelists × 3 replicates)): 33 | saltiness of test sample versus control sample ([2]; 5 ppm in low sodium chicken broth): significantly saltier

COc1cc(C)ccc1CNC(=O)C(=O)NCCc1ccccn1 [Formula (1c)]
Sample selected as saltier by panelists (Total) ([1]; 1 ppm in chicken broth (100 mM NaCl added), n = 51 (17 panelists × 3 replicates)): 33 | saltiness of test sample versus control sample ([1]; 1 ppm in chicken broth (100 mM NaCl added)): significantly saltier | Sample selected as saltier by panelists (Total) ([2]; 1 ppm in low sodium chicken broth, 0.1% ethanol, n = 48 (16 panelists × 3 replicates)): 36 | saltiness of test sample versus control sample ([2]; 1 ppm in low sodium chicken broth): significantly saltier

COc1cccc(CNC(=O)C(=O)NCCc2ccccn2)c1OC [Formula (1d)]
Sample selected as saltier by panelists (Total) ([1]; 8 ppm in chicken broth (100 mM NaCl added), n = 48 (16 panelists × 3 replicates)): 31 | saltiness of test sample versus control sample ([1]; 8 ppm in chicken broth (100 mM NaCl added)): significantly saltier | Average Saltiness Score of Test Sample as compared to Reference Sample ([3]; 8 ppm in low sodium chicken broth, 11-point scale −5 to +5, n = 30 (15 panelists × 2 replicates)): 0.8 | saltiness of test sample versus reference sample ([3]; 8 ppm in low sodium chicken broth, p<0.1): significantly saltier | Sample selected as saltier by panelists (Total) ([2]; 8 ppm in low sodium chicken broth, 0.1% ethanol, n = 51 (17 panelists × 3 replicates)): 37 | saltiness of test sample versus control sample ([2]; 8 ppm in low sodium chicken broth): significantly saltier

COC[C@@H](CC(C)C)NC(=O)c1ccc(C)c(C)c1 [Formula (1e)]
Average Saltiness Score of Test Sample as compared to Reference Sample ([3]; 2 ppm in low sodium chicken broth, 11-point scale −5 to +5, n = 30 (15 panelists × 2 replicates)): 0.5 | saltiness of test sample versus reference sample ([3]; 2 ppm in low sodium chicken broth, p<0.1): significantly saltier | Sample selected as saltier by panelists (Total) ([2]; 2 ppm in low sodium chicken broth, 0.1% ethanol, n = 51 (17 panelists × 3 replicates)): 32 | saltiness of test sample versus control sample ([2]; 2 ppm in low sodium chicken broth, 0.1% ethanol): significantly saltier

COc1cc(C)ccc1CNC(=O)C(=O)NCCc1ccc(C)cn1 [Formula (1f)]
Sample selected as saltier by panelists (Total) ([1]; 2 ppm Formula (1f) in chicken broth (100 mM NaCl added), n = 48 (16 panelists × 3 replicates)): 32 | saltiness of test sample versus control sample ([1]; 2 ppm Formula (1f) in chicken broth (100 mM NaCl added)): significantly saltier | Average Saltiness Score of Test Sample as compared to Reference Sample ([3]; 1 ppm in low sodium chicken broth, 11-point scale −5 to +5, n = 26 (13 panelists × 2 replicates)): 1.0 | saltiness of test sample versus reference sample ([3]; 1 ppm in low sodium chicken broth, n = 26, p<0.1): significantly saltier

COc1ccc(CNC(=O)C(=O)NCCc2ccccn2)c(OC)c1 [Formula (1g)]
Average Saltiness Score of Test Sample as compared to Reference Sample ([3]; 1 ppm in low sodium chicken broth, 11-point scale −5 to +5, n = 30 (15 panelists × 2 replicates)): 0.5 | saltiness of test sample versus reference sample ([3]; 1 ppm in low sodium chicken broth, n = 30, p<0.1): significantly saltier
